Patent US10793601B2, “Therapeutic spalt-like transcription factor 4 (SALL4) peptide” (National University of Singapore, priority 2016, dated 2020)
Where “and” joins values, the source holds several entries; their conditions need not be identical. Equal entries are not always repeated. Ends that are not written are not given here.

How the values were obtained:
in vitro = settings: human, plasma, pH 7.4
Experimental: PEN-FFW was incubated with human plasma (pH7.4) at 37° C. over a 24 hour period (5 timepoints). Incubations were performed at a concentration of 1 μM (final DMSO concentration 2.5%). Reactions were terminated at 0, 5, 10, 15, 30 min, or 0, 1, 2, 4 and 24 hour, by addition of 2 volumes of methanol containing 1% Formic acid. The samples were centrifuged (2500 rpm, 45 min, 4° C.) and the supernatants diluted with 2 volumes of 0.2% Formic acid (aq) (containing Metoprolol (internal standard)). […] The percentage of parent peptide remaining at each time point relative to the 0 min sample was calculated from LC-MS/MS peak area ratios (compound peak area/internal standard peak area).

SNU398 = experiment: RNA-seq transcriptome analysis of treated SNU398; format: cell-based; settings: SNU398 treated 8 hrs
Experimental: SNU398 were treated PEN, PEN-MUT, PEN-WT & PEN-FFW for 8 hrs and paired-end RNA-seq was performed for the treated samples. RNA-seq reads of each sample were mapped to hg19 using the STAR aligner. Normalization between the samples was based on the proportionality of the numbers of the mapped reads. The expression fold change of a transcript was obtained using linear regression of the reads between the two samples cross all exons. Differential expression between two samples was selected by using the fold change cut off of 2. Hierarchical clustering was performed based on average linkage to generate the clustering tree as well as heat maps. For identification of enriched gene sets or pathways, Gene Set Enrichment Analysis (GSEA) was performed based on the normalized data and using the GSEA tool (broad.mit.edu/gsea/) with msigdb.v5.0.

[1] = mouse, in vivo
Experimental: (§2) Mice were exposed to intraperitoneal (IP) administration of PEN-FFW (30 mg/kg) or vehicle (10% DMSO) every alternate day over the course of 17 days to a cumulative dose of 270 mg/kg.
(§3) Toxicity of PEN-FFW was studied in vivo in C57BL/6 mice (n=4). Theses mice were exposed to intraperitoneal (IP) administration of PEN-FFW (30 mg/kg) or vehicle (10% DMSO) every alternate day over the course of 17 days to a cumulative dose of 270 mg/kg. […] After a 7-day washout period, complete blood counts and liver function assay tests were performed, and organs were harvested for histology. Potential liver injury caused by the peptide treatment was studied by testing serum AST (Aspartate Aminotransferase) and ALT (Alanine Aminotransferase) levels.
(§4) 6-8-week old female C57BL mice were given PEN-FFW (30 mg/kg) (n=3) or DMSO control (n=2) every alternate day, for a total of 17 day, to a cumulative dose of 270 mg/kg. The mice were observed and weighted throughout the period. A 7 days wash out period were given before the mice were sacrificed with their blood and organs collected. Blood count were perform immediately with Celltact MEK6450 (Nihon Kohden, Japan), and serum were subjected for ALT and AST assay on the same day. ALT and AST were performed according to the manufacturer's protocol (Sigma-Aldrich, Merck, Germany). The organs were fixed with neutral buffered Formalin and embedded in paraffin. […]

PLC8024 tumor xenografts = experiment: PLC8024 xenograft (Sorafenib-resistant HCC); format: in vivo, mice
Experimental: (§1) FIGS. 9A-9E. Clinical significance of PEN-FFW compared to Sorafenib. FIG. 9A: PEN-FFW treated SNU398 tumor xenografts were compared to that of Sorafenib treated xenografts. FIG. 9B: PEN-FFW treated PLC8024 tumor xenografts were compared to that of Sorafenib treated xenografts. Mice body weight was measured to access toxicity of various peptides. FIG. 9C: Body weight of mice at day 17. FIG. 9D: Differences of body weight compared to day 0 (As indicated by the arrow in far left of FIG. 7A). FIG. 9E: Body weight of mice at day 19th in the experiment shown in FIG. 9A comparing effect of Sorafenib and PEN-FFW. Data represent mean±s.d. (n=5).
Clinical significance of PEN-FFW was studied in vivo by benchmarking against current therapy using Sorafenib. PEN-FFW treated SNU398 tumor xenografts were compared to that of Sorafenib treated xenografts (FIG. 9A). […] Potential therapeutic effect of PEN-FFW in HCC patients that are refractory to Sorafenib treatment was studied also studied in vivo. using a HCC cell line, PLC8024 which is SALL4 positive, CD133+ and is both chemo- and radio-resistant (Li et al., BMC Cancer 2016, 16, 15; Ma et al., Oncogene 2008, 27: 1749-1758), for the xenograft study.

SNU398 tumor xenografts = experiment: SNU398 xenograft in NSG mice; format: in vivo, NOD/SCID/gamma mice
Experimental: FIGS. 7A-7E. […] FIG. 7A: 7.2×10^5 SNU398 cells were inoculated subcutaneously into the right flank of NOD/SCID/gamma mice (NSG mice). Tumors were allowed to grow for one week before peptide treatments were administered every alternate day for a total of five injections. FIG. 7B: Tumor growth was documented by plotting tumor volume against time. […] FIG. 7C: Relative size of tumors resected on day 20. FIG. 7D: tumor weight was determined (n=5). […] FIG. 7E: Total RNA was isolated from the resected tumors and expression of PTEN was measured using real-time PCR.
as §1, with “Clinical significance of PEN-FFW compared to Sorafenib.” left out
All mice were treated in accordance with Responsible Care and Use of Laboratory animals. In the SNU398 in vivo studies, 6-8-week-old female C.B-17 severe combined immunodeficient (SCID) mice (NSG) were inoculated s.c. into the flank with 7.2×10^5 cells in 2:1 PBS/Matrigel (BD Biosciences). The tumours were then allowed to develop to the size of 50-70 mm3 before intraperitoneal injections of the different peptides were given at two to three-day intervals for a total of 5 injections. Mice were randomly grouped in sets of six and treated with PEN (penetratin control), PEN-MUT (mutant control), PEN-WT (wild type control) and PEN-FFW (peptide 47). Tumor volumes were measured every 5 days and tumor weight were measured at the end point. For PEN control, 22.5 mg/kg were given; for PEN-MUT, PEN-WT and PEN-FFW, 35.6 mg/kg, 37 mg/kg and 36 mg/kg were given respectively to the mice according to their body weight Tumor measurements were taken twice weekly using Vernier calipers. Tumor volume was estimated using the following formula: V=0.5×width×width×length. When tumors approached ˜50 mm3, mice were randomized into groups of 5 animals each and received peptides treatment three times weekly by i.p. injection. All statistical analysis was done using a one-way ANOVA and Student's T-test.

SNU398 cells = experiment: Cell viability assay in SNU398 cells; format: cell-based; settings: ratio of EC50, SNU398
Experimental: FIGS. 3A-3E. Key residues involved in SALL4 (1-12)-RBBp4 binding. […] The difference in the binding free energy (ΔΔGbind) of the alanine mutants (ΔGmutant, Ala7 was mutated to glycine) and wild type (ΔGwild type) was calculated (ΔΔGbind=ΔGmutant−ΔGwild type). ΔΔGbind was tabulated (left) and plotted in a bar chart (right). […] Mutated residues are highlighted in red. The IC50 of each peptide, including WT, was determined by Fluorescence Polarization (FP). Different concentrations of each peptide were titrated into a mixture of 0.04 μM RBBp4 and 0.01 μM of C-labelled FITC-SALL4 WT peptide. Polarization was measured in mP. […] Pep-1 carrier was added to the peptide to facilitate cellular penetration of the peptides.
FIGS. 5A-5B. Development of a potent therapeutic peptide FFW.
SNU398 was grown in RPMI supplemented with 10% fetal bovine serum (FBS) at 37° C. in a humidified atmosphere of 5% CO2. 3000 cells were seeded in each well of a 96 well plate with 100 μL of medium. Before peptide treatment, cells were washed twice with PBS and treated with different concentrations of peptide in OPTIMEM (LifeTech). Media was added after 4 hrs of incubation at 37° C., and cells incubated for another 68 hrs. Tetrazolium (CellTiter96 AQueous One Solution Cell Proliferation Assay, Promega) was added after 72 hrs incubation with the peptides, and the plate was read at a plate reader at 490 nm after 1 hr of incubation in the dark at 37° C.

[2] = Toxicity study, repeated IP administration; settings: 30 mg/kg IP every alternate day, 17 days, cumulative 270 mg/kg
Experimental: as §2, §3, §4

Sequence: RQIKIWFQNRRMKWKKRRKFAKFQWI [PEN-FFW]
- remaining at 0.5 h, 1 μM (in vitro): > 90%
- remaining at 4 h, 1 μM (in vitro): > 50%
- remaining at 24 h, 1 μM (in vitro): ~20%
- share of DEGs upregulated (SNU398): more than 99%
- tissue damage by microscopic examination of major organs [1]: No tissue damage was observed
- tumor inhibitory effect (PLC8024 tumor xenografts): minimal tumor inhibitory effect
- anti-tumor activity benchmarked against Sorafenib (SNU398 tumor xenografts; SNU398 xenograft, compared to vehicle treated groups): stronger anti-tumor activity than Sorafenib
- effect on tumor growth (SNU398 tumor xenografts; SNU398 xenograft, tumor volume against time): significant reduced growth rate
- tumor weight (SNU398 tumor xenografts; mean, tumors resected on day 20, five i.p. injections): 88.34 mg and 88 mg
- improvement as compared with PEN-WT (SNU398 cells): 4 fold
- signs of toxicity (weight loss, lethargy, loss of mobility) [2]: did not exhibit notable signs of toxicity
